Laboratory results published in patent publication US20130040933A1, “AZAINDOLES AS JANUS KINASE INHIBITORS” (priority 2010, published 2013).

The compounds below were run against T1, rhJAK3 (Homo sapiens, UniProt P52333) (assay: JAK Biochemical HTRF Assay (JAK3)). Details: recombinant purified GST-tagged catalytic domain, HTRF format, [ATP] 1.7 μM; read-out: JAK3 IC50.
T1 construct: recombinant purified GST-tagged catalytic domain for each enzyme; purchased Invitrogen PV3855
T1 sequence (P52333 822-1111 limits assumed): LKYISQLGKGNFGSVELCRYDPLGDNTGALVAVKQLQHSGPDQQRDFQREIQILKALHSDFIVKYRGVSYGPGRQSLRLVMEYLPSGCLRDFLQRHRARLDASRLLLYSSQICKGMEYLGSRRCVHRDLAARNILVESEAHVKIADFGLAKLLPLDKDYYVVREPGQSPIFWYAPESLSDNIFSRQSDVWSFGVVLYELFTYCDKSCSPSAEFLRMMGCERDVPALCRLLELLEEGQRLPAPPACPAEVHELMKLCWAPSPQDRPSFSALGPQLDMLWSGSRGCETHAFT
Compound `C[C@@H](Nc1cncc(-c2c[nH]c3ncc(-c4ccccc4CN(C)C)cc23)n1)C(=O)NCC(F)(F)F` [Example 15-13, N^2-[6-(5-{2-[(dimethylamino)methyl]-phenyl}-1H-pyrrolo(2,3-b]pyridin-3-yl)pyrazin-2-yl]-N-(2,2,2-trifluoroethyl)-D-alaninamide] has an IC50 of 1 to 10 nM. `C[C@@H](Nc1cncc(-c2c[nH]c3ncc(-c4ccccc4OC(F)(F)F)cc23)n1)C(=O)NCC(F)(F)F` [Example 15-14, N-(2,2,2-trifluoroethyl)-N^2-(6-{5-[2-(trifluoromethoxy)phenyl]-1H-pyrrolo[2,3-b]pyridin-3-yl}pyrazin-2-yl)-D-alaninamide] gave an IC50 of 10 to 100 nM. In the case of `C[C@@H](Nc1cncc(-c2c[nH]c3ncc(C4=CCOCC4)cc23)n1)C(=O)NCC(F)(F)F` [Example 15-15, N^2-{6-[5-(3,6-dihydro-2H-pyran-4-yl)-1H-pyrrolo[2,3-b]pyridin-3-yl]pyrazin-2-yl}-N-(2,2,2-trifluoroethyl)-D-alaninamide], the IC50 is reported as ≤ 1 nM. In the case of `C[C@@H](Nc1cncc(-c2c[nH]c3ncc(C4=CCCOC4)cc23)n1)C(=O)NCC(F)(F)F` [Example 15-16, N^2-{6-[5-(5,6-dihydro-2H-pyran-3-yl)-1H-pyrrolo[2,3-b]pyridin-3-yl]pyrazin-2-yl}-N-(2,2,2-trifluoroethyl)-D-alaninamide], the IC50 is reported as ≤ 1 nM. In the case of `C[C@@H](Nc1cncc(-c2c[nH]c3ncc(-c4ccc(N5CCCC5)cc4)cc23)n1)C(=O)NCC(F)(F)F` [Example 15-17, N^2-{6-[5-(4-pyrrolidin-1-ylphenyl)-1H-pyrrolo[2,3-b]pyridin-3-yl]pyrazin-2-yl}-N-(2,2,2-trifluoroethyl)-D-alaninamide], the IC50 is reported as ≤ 1 nM. For `COc1cncc(-c2cnc3[nH]cc(-c4cncc(N[C@H](C)C(=O)NCC(F)(F)F)n4)c3c2)c1` [Example 15-18, N^2-{6-[5-(5-methoxypyridin-3-yl)-1H-pyrrolo[2,3-b]pyridin-3-yl]pyrazin-2-yl}-N-(2,2,2-trifluoroethyl)-D-alaninamide], the IC50 was ≤ 1 nM. For `C[C@@H](Nc1cncc(-c2c[nH]c3ncc(-c4cncc(C#N)c4)cc23)n1)C(=O)NCC(F)(F)F` [Example 15-19, N^2-{6-[5-(5-cyanopyridin-3-yl)-1H-pyrrolo[2,3-b]pyridin-3-yl]pyrazin-2-yl}-N-(2,2,2-trifluoroethyl)-D-alaninamide], the IC50 was ≤ 1 nM. With `C[C@@H](Nc1cncc(-c2c[nH]c3ncc(-c4cccnc4F)cc23)n1)C(=O)NCC(F)(F)F` [Example 15-20, N^2-{6-[5-(2-fluoropyridin-3-yl)-1H-pyrrolo[2,3-b]pyridin-3-yl)pyrazin-2-yl}-N-(2,2,2-trifluoroethyl)-D-alaninamide] the IC50 was ≤ 1 nM. `CC(C)(Nc1cncc(-c2c[nH]c3ncc(C4CC4)cc23)n1)C(=O)NCC(F)(F)F` [Example 15-21, N2-[6-(5-cyclopropyl-1H-pyrrolo[2,3-b]pyridin-3-yl)pyrazin-2-yl]-2-methyl-N-(2,2,2-trifluoroethyl)alaninamide] was tested, and the IC50 was ≤ 1 nM. Compound `CC(C)[C@@H](Nc1cncc(-c2c[nH]c3ncc(F)cc23)n1)C(=O)NCC(F)(F)F` [Example 16-1, N^2-[6-(5-fluoro-1H-pyrrolo[2,3-b]pyridin-3-yl)pyrazin-2-yl]-N-(2,2,2-trifluoroethyl)-D-valinamide] has an IC50 of 1 to 10 nM. With `CC(C)[C@@H](Nc1cncc(-c2c[nH]c3ncc(C#N)cc23)n1)C(=O)NCC(F)(F)F` [Example 16-2, N^2-[6-(5-cyano-1H-pyrrolo[2,3-b]pyridin-3-yl)pyrazin-2-yl]-N-(2,2,2-trifluoroethyl)-D-valinamide] the IC50 was ≤ 1 nM. For `COC(=O)c1cnc2[nH]cc(-c3cncc(N[C@@H](C(=O)NCC(F)(F)F)C(C)C)n3)c2c1` [Example 16-3, Methyl 3-[6-({(2R)-3-methyl-1-oxo-1-[(2,2,2-trifluoroethyl)amino]butan-2-yl}-amino)pyrazin-2-yl]-1H-pyrrolo[2,3-b]-pyridine-5-carboxylate], the IC50 was 1 to 10 nM. With `CC(C)(Nc1cncc(-c2c[nH]c3ncc(F)cc23)n1)C(=O)NCC(F)(F)F` [Example 16-5, N^2-[6-(5-fluoro-1H-pyrrolo[2,3-b]pyridin-3-yl)pyrazin-2-yl]-2-methyl-N-(2,2,2-trifluoroethyl)alaninamide] the IC50 was ≤ 1 nM.

Same assay, conditions: recombinant purified GST-tagged catalytic domain, HTRF format, [ATP] 1.7 μM; read-out: rhJAK3 IC50
With “(2R)-1-[6-(5-chloro-1H-pyrrolo[2,3-b]- pyridin-3-yl)pyrazin-2-yl]-N-(2,2,2- trifluoroethyl)piperazine-2-carboxamide [Example 4-1]” the IC50 was 10 to 100 nM.
